Assay results taken from patent US5457092A, “Methods of promoting bone growth in mammals comprising administration of modified parathyroid hormone” (Gesellschaft fur Biotechnologische Forschung mbH (GBF), priority 1987, dated 1995).

What was measured:
[1] = tested on: osteoblast enriched rat embryo calvaria cell cultures; assay: Cyclic AMP production in rat embryo calvaria cell cultures; assay type: cell-based; details: 100 nM; 15 min; control 29 ± 2.9 pmol/mg of protein
Experimental: (§1) FIG. 10 is a graphical representation showing the dose dependent stimulation by bPTH (1-84) of osteoblast enriched rat embryo calvaria cell cultures. Experimental details for the determination of cyclic AMP (.quadrature.) (15 min after stimulation) and incorporation of [^3 H]thymidine into DNA ( ) and CK ( ) specific activity (24 h after stimulation) are given below. The results are means ±S.E.M., N≥5. In several cases the S.E.M. was less than the size of the symbol. Control values were: cyclic AMP, 25±5 pmol/mg of protein; DNA, 240±30 c.p.m./μg of DNA; CK, 200±20 nmol/min per mg of protein. Statistical significance of differences between treated and corresponding control groups by Student's T test: *P<0.05; **P<0.01.
(§2) Rat calvaria cultures were treated with fragments of PTH derived from the central portion of the molecule.

[2] = tested on: chondrocytes from sterna of 16-day-old embryonic chicks; assay: Stimulation of DNA synthesis in chondrocytes by PTH fragments (Table 1); assay type: cell-based, chick; details: for [^3 H]thymidine incorporation: 4 h; for E/C: stimulated / non-induced control cells
Experimental: Chondrocytes were isolated from sterna of 16-day-old embryonic chicks according to J. Biol. Chem., 261 (1986) 7997-8001 (10; Yasui et al.) with some modifications. Collagenase was dissolved in Hanks' balanced salt solution (0.4 mM Na2 HPO4, 140 mN NaCl, 5.3 mM KCl, 0.4 mM MgSO4, 1.3 mM CaCl2, 0.4 mM KH2 PO4, 0.5 mM MglC2, 5 mM glucose, 0.05% gentamicin) at a concentration of 286 units/ml. Sterna were treated repeatedly for 30 min with collagenase solution at 37° C. Cells first released by this procedure were discarded because of their very poor responsiveness towards PTH. The collagenase treatment was subsequently repeated leading to a highly homogenous cell population of chondrocytes. The cells obtained by a second collagenase treatment were collected by centrifugation (1000 rpm, 10 min), washed twice with medium (Dulbecco's modified Eagle's medium, GIBCO, supplemented with NaHCO3 (45 mM), glutamine (2 mM), penicillin G/streptomycin (65 mg/1 and 100 mg/l, respectively), Hepes (10 mM, pH 7.2), and FCS (10% v/v) and counted.
The DNA synthesis rate was assayed in monolayer culture by the incorporation of ]^3 H]thymidine into perchloric acid-precipitable material. […] After 17 h, the medium was replaced by 200 μl of serum-free medium. After 4 days, chondrocytes were incubated for 4 h with the appropriate effector and 1μ Ci of [^3 H]thymidine. Subsequently, medium was removed and the cells were washed twice with 200 μl of phosphate-buffered saline (PBS: 137 mM NaCl, 2.7 mN KCl, 1.5 mM KH2 PO4, 0.8 mN Na2 HPO4, pH 7.0). Then cells were lysed by 100 μl of 2% (v/v) Nonidet P- 40 and 2% (w/v) sodium dodecyl sulfate treatment and the perchloric acid-insoluble material was precipitated by adding an equal volume of ice-cold 2% (w/v) perchloric acid in the presence of 1% herring sperm DNA as carrier. After storage for 10 min at -20° C., the precipitated material of each well was transferred to glass fiber filters with a Scatron--As semiautomatic cell harvester. Filters were dried at 80° C. for 20 min, transferred into scintillation vials, and 2 ml of scintillation mixture (scintillator 299; United Technology Pachard) were added. Radioactivity of the samples was determined with a β counter (Minimax; United Technology Pachard). Each test consisted of 5 up to 10 identically treated wells and was repeated at least twice with freshly prepared chondrocytes.
The incorporation of [^3 H]thymidine by non-induced control cells and by stimulated cells is shown by C and E, respectively. The results shown mean ±S.E. for n parallel cell cultures.

[3] = tested on: osteoblast enriched rat embryo calvaria cell cultures; assay: CK specific activity in rat embryo calvaria cell cultures; assay type: cell-based; details: for CK specific activity, effect of fragment (experimental value/control value): 100 nM, 24 h, control 457 ± 46 nmol/min per mg of protein; for increase of CK activity (in words): treated for 24 h
Experimental: as §1, §2

[4] = tested on: osteoblast enriched rat embryo calvaria cell cultures; assay: DNA synthesis ([3H]thymidine incorporation) in rat embryo calvaria cell cultures; assay type: cell-based; details: 100 nM; 24 h; control 624 ± 73 c.p.m./μg of DNA
Experimental: as §1

[5] = tested on: ROS 17/2.8 osteoblast-like cells; assay: Cyclic AMP production in ROS 17/2.8 osteoblast-like cells; assay type: cell-based, rat
Experimental: When cultures of the widely used model for osteoblasts, the osteoblast-likeclone of rat osteosarcoma, ROS 17/2.8 (Endocrinology (Baltimore), 107 (1980) 1494-1503=12; Majeska et al.), were incubated with full-length PTH and PTH fragments (Table 4), cyclic AMP production was stimulated only by bPTH(1-84) and hPTH(1-34), whereas hPTH(25-39), hPTH(27-48), hPTH(28-48) and hPTH(34-47) were ineffective.

[6] = tested on: ROS 17/2.8 osteoblast-like cells; assay: DNA synthesis in ROS 17/2.8 osteoblast-like cells; assay type: cell-based, rat
[7] = tested on: ROS 17/2.8 osteoblast-like cells; assay: CK specific activity in ROS 17/2.8 osteoblast-like cells; assay type: cell-based, rat

## hPTH(30-47): PTH fragment 30-47, human source; comparative example (DVHNFVALGAPLAPRDAG; Parathyroid hormone; UniProt P01270 61-78, looked up, fragment) [reference compound]
[1]
  Cyclic AMP concentration, effect of fragment (experimental value/control value): 1.00 ± 0.22
[2]; 5.1 × 10^-5 mol/l, control 139 ± 6
  [^3 H]thymidine incorporation: 248 ± 31 cpm
[2]; 5.1 × 10^-5 mol/l
  E/C: 1.78
[2]; 5.1 × 10^-6 mol/l, control 139 ± 6
  [^3 H]thymidine incorporation: 193 ± 20 cpm
[2]; 5.1 × 10^-6 mol/l
  E/C: 1.39
[2]; 5.1 × 10^-7 mol/l, control 139 ± 6
  [^3 H]thymidine incorporation: 222 ± 19 cpm
[2]; 5.1 × 10^-7 mol/l
  E/C: 1.60
[2]; 5.1 × 10^-8 mol/l, control 139 ± 6
  [^3 H]thymidine incorporation: 169 ± 23 cpm
[2]; 5.1 × 10^-8 mol/l
  E/C: 1.22
[3]
  CK specific activity, effect of fragment (experimental value/control value): 1.27 ± 0.03
  increase of CK activity (in words): slightly stimulatory
[4]
  [3H)Thymidine incorporation, effect of fragment (experimental value/control value): 1.86 ± 0.18

## hPTH(29-47): PTH fragment 29-47, human source (QDVHNFVALGAPLAPRDAG; Parathyroid hormone; UniProt P01270 60-78, looked up, fragment)
[1]
  Cyclic AMP concentration, effect of fragment (experimental value/control value): 0.57 ± 0.47
[2]; 4.8 × 10^-5 mol/l, control 139 ± 6
  [^3 H]thymidine incorporation: 273 ± 30 cpm
[2]; 4.8 × 10^-5 mol/l
  E/C: 1.96
[2]; 4.8 × 10^-6 mol/l, control 139 ± 6
  [^3 H]thymidine incorporation: 225 ± 20 cpm
[2]; 4.8 × 10^-6 mol/l
  E/C: 1.62
[2]; 4.8 × 10^-7 mol/l, control 139 ± 6
  [^3 H]thymidine incorporation: 273 ± 33 cpm
[2]; 4.8 × 10^-7 mol/l
  E/C: 1.96
[2]; 4.8 × 10^-8 mol/l, control 139 ± 6
  [^3 H]thymidine incorporation: 138 ± 15 cpm
[2]; 4.8 × 10^-8 mol/l
  E/C: 0.99
[3]
  CK specific activity, effect of fragment (experimental value/control value): 1.67 ± 0.13
  increase of CK activity (in words): stimulatory but to a lesser degree
[4]
  [3H)Thymidine incorporation, effect of fragment (experimental value/control value): 1.96 ± 0.14

## hPTH(27-48): PTH fragment 27-48 as printed; probably a misprint of hPTH(28-47) (KLQDVHNFVALGAPLAPRDAGS; Parathyroid hormone; UniProt P01270 58-79, looked up, fragment)
[5]
  stimulation of cyclic AMP production (in words): ineffective

## hPTH(33-47): PTH fragment 33-47, human source; inactive fragment (NFVALGAPLAPRDAG; Parathyroid hormone; UniProt P01270 64-78, looked up, fragment) [reference compound]
[3]
  increase of CK activity (in words): inactive

## hPTH(24-47): PTH fragment 24-47 as printed; probably a misprint of hPTH(34-47) (LRKKLQDVHNFVALGAPLAPRDAG; Parathyroid hormone; UniProt P01270 55-78, looked up, fragment)
[6]
  stimulation of DNA synthesis (in words): stimulated by all of the cell fragments tested except
[7]
  stimulation of CK activity (in words): stimulated by all of the cell fragments tested except

## hPTH(32-47): PTH fragment 32-47 as printed; at this place probably a misprint of hPTH(28-47) (HNFVALGAPLAPRDAG; Parathyroid hormone; UniProt P01270 63-78, looked up, fragment)
[3]
  increase of CK activity (in words): maximally active

## hPTH(28-39): PTH fragment 28-39, human source (LQDVHNFVALGA; Parathyroid hormone; UniProt P01270 59-70, looked up, fragment)
[2]; 7.6 × 10^-4 mol/l, control 324 ± 18
  [^3 H]thymidine incorporation: 387 ± 41 cpm
[2]; 7.6 × 10^-4 mol/l
  E/C: 1.19
[2]; 7.6 × 10^-5 mol/l, control 324 ± 18
  [^3 H]thymidine incorporation: 399 ± 47 cpm
[2]; 7.6 × 10^-5 mol/l
  E/C: 1.23
[2]; 7.6 × 10^-6 mol/l, control 324 ± 18
  [^3 H]thymidine incorporation: 324 ± 45 cpm
[2]; 7.6 × 10^-6 mol/l
  E/C: 1.00
[2]; 7.6 × 10^-7 mol/l, control 324 ± 18
  [^3 H]thymidine incorporation: 473 ± 74 cpm
[2]; 7.6 × 10^-7 mol/l
  E/C: 1.46
[2]; 7.6 × 10^-8 mol/l, control 324 ± 18
  [^3 H]thymidine incorporation: 319 ± 39 cpm
[2]; 7.6 × 10^-8 mol/l
  E/C: 0.97

## hPTH(31-47): PTH fragment 31-47, human source; comparative example (VHNFVALGAPLAPRDAG; Parathyroid hormone; UniProt P01270 62-78, looked up, fragment) [reference compound]
[2]; 5.3 × 10^-5 mol/l, control 139 ± 6
  [^3 H]thymidine incorporation: 176 ± 8 cpm
[2]; 5.3 × 10^-5 mol/l
  E/C: 1.27
[2]; 5.3 × 10^-6 mol/l, control 139 ± 6
  [^3 H]thymidine incorporation: 178 ± 35 cpm
[2]; 5.3 × 10^-6 mol/l
  E/C: 1.28
[2]; 5.3 × 10^-7 mol/l, control 139 ± 6
  [^3 H]thymidine incorporation: 178 ± 24 cpm
[2]; 5.3 × 10^-7 mol/l
  E/C: 1.28
[2]; 5.3 × 10^-8 mol/l, control 139 ± 6
  [^3 H]thymidine incorporation: 165 ± 20 cpm
[2]; 5.3 × 10^-8 mol/l
  E/C: 1.19
[3]
  increase of CK activity (in words): inactive

## hPTH(29-39): PTH fragment 29-39 as printed; probably a misprint of hPTH(25-39) (QDVHNFVALGA; Parathyroid hormone; UniProt P01270 60-70, looked up, fragment)
[3]
  increase of CK activity (in words): maximally active
